# Laboratory results as given in ChEMBL document CHEMBL1201862, “PubChem BioAssay data set” (2004).
#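 Tested at 5 concentrations; 48 h exposure; 96-well plates; endpoints linearly interpolated, else capped at highest concentration. Here, GI50 denotes the concentration required for 50% inhibition of growth.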 Activity calls are given as the source filed them. No stated cut-off is given here; in the data, active = GI50 up to about 1.1 µM and inactive = higher.
# Experiments:
# Test in all cases: growth of human tumour cells (NCI), 48 h
# A549 = system: A549
# HCC 2998 = system: HCC 2998
# HCT-15 = system: HCT-15
# HL-60 = system: HL-60
# HOP-62 = system: HOP-62
# HT-29 = system: HT-29
# K562 = system: K562
# M14 = system: M14
# NCI-H522 = system: NCI-H522
# OVCAR-5 = system: OVCAR-5
# OVCAR-8 = system: OVCAR-8
# SNB-19 = system: SNB-19
# SR = system: SR
# TK-10 = system: TK-10
# U-251 = system: U-251
# UO-31 = system: UO-31
SMILES,GI50 (A549),GI50 (HCC 2998),GI50 (HCT-15),GI50 (HL-60),GI50 (HOP-62),GI50 (HT-29),GI50 (K562),GI50 (M14),GI50 (NCI-H522),GI50 (OVCAR-5),GI50 (OVCAR-8),GI50 (SNB-19),GI50 (SR),GI50 (TK-10),GI50 (U-251),GI50 (UO-31)
O=C1Nc2ccc(Cl)c(I)c2C1=O,44.7 µM (inactive),14.6 µM (inactive),20.9 µM,16.1 µM (inactive),19.5 µM (inactive),29.6 µM (inactive),22.3 µM (inactive),17 µM (inactive),17.2 µM (inactive),19.7 µM (inactive),18.7 µM (inactive),24.5 µM (inactive),22 µM (inactive),38.5 µM (inactive),17.2 µM (inactive),17.7 µM (inactive)
NC(=S)N/N=C1/CN(c2ccc(Cl)c(Cl)c2)CC(=O)C1c1nc2ccccc2s1 (centres undefined),> 100 µM (inactive),> 100 µM (inactive),> 100 µM,68.9 µM (inactive),> 100 µM (inactive),81.5 µM (inactive),43 µM (inactive),> 100 µM (inactive),36.1 µM (inactive),> 100 µM (inactive),76.7 µM (inactive),56.8 µM (inactive),–,> 100 µM (inactive),67.1 µM (inactive),38.7 µM (inactive)
COC(=O)CCC12CCC(=O)C1[C@@H](C(=O)OC)C[C@H]2C(=O)OC (some centres undefined),> 100 µM (inactive),> 100 µM (inactive),> 100 µM,> 100 µM (inactive),> 100 µM (inactive),> 100 µM (inactive),> 100 µM (inactive),> 100 µM (inactive),> 100 µM (inactive),> 100 µM (inactive),> 100 µM (inactive),> 100 µM (inactive),–,> 100 µM (inactive),> 100 µM (inactive),> 100 µM (inactive)
C#CCN(N=O)C(=O)ON1C(=O)CCC1=O,> 100 µM (inactive),–,> 100 µM,> 100 µM (inactive),> 100 µM (inactive),> 100 µM (inactive),> 100 µM (inactive),> 100 µM (inactive),> 100 µM (inactive),61.8 µM (inactive),> 100 µM (inactive),> 100 µM (inactive),–,> 100 µM (inactive),74.8 µM (inactive),> 100 µM (inactive)
Cc1ccccc1C(C#N)C(=O)C(=O)Nc1nc([N+](=O)[O-])cs1 (centres undefined),> 100 µM (inactive),> 100 µM (inactive),> 100 µM,26.2 µM (inactive),> 100 µM (inactive),> 100 µM (inactive),–,> 100 µM (inactive),> 100 µM (inactive),> 100 µM (inactive),> 100 µM (inactive),> 100 µM (inactive),–,> 100 µM (inactive),> 100 µM (inactive),> 100 µM (inactive)
CCc1ccccc1NC(=O)CCc1nnc(S)[nH]1,> 100 µM (inactive),> 100 µM (inactive),> 100 µM,> 100 µM (inactive),> 100 µM (inactive),> 100 µM (inactive),> 100 µM (inactive),> 100 µM (inactive),> 100 µM (inactive),> 100 µM (inactive),> 100 µM (inactive),> 100 µM (inactive),> 100 µM (inactive),> 100 µM (inactive),> 100 µM (inactive),> 100 µM (inactive)
CCN(CC)CCSc1c2ccccc2nc2c(OC)ccc(OC)c12,29.3 µM (inactive),–,3.15 µM,1.73 µM (inactive),31.8 µM (inactive),4.59 µM (inactive),2.94 µM (inactive),2.44 µM (inactive),3.26 µM (inactive),29.9 µM (inactive),2.43 µM (inactive),43.6 µM (inactive),1.1 µM (active),4.97 µM (inactive),30.3 µM (inactive),12.8 µM (inactive)
Oc1ccc(O)c(-n2cccn2)c1-n1cccn1,> 100 µM (inactive),> 100 µM (inactive),> 100 µM,> 10 µM (inactive),> 100 µM (inactive),> 100 µM (inactive),36.8 µM (inactive),> 100 µM (inactive),25.7 µM (inactive),> 100 µM (inactive),> 100 µM (inactive),> 100 µM (inactive),–,> 100 µM (inactive),> 100 µM (inactive),> 100 µM (inactive)
CCOC(=O)C1C2CCC(C2)C1(CCl)C(=O)OCC (centres undefined),> 100 µM (inactive),> 100 µM (inactive),> 100 µM,> 100 µM (inactive),> 100 µM (inactive),> 100 µM (inactive),> 100 µM (inactive),> 100 µM (inactive),–,> 100 µM (inactive),> 100 µM (inactive),> 100 µM (inactive),> 100 µM (inactive),> 100 µM (inactive),> 100 µM (inactive),> 100 µM (inactive)
CC1=CCCC(OC(N)=O)C1 (centres undefined),> 100 µM (inactive),> 100 µM (inactive),> 100 µM,> 100 µM (inactive),> 100 µM (inactive),> 100 µM (inactive),> 100 µM (inactive),> 100 µM (inactive),–,> 100 µM (inactive),> 100 µM (inactive),> 100 µM (inactive),–,> 100 µM (inactive),> 100 µM (inactive),> 100 µM (inactive)
O=C(O)CNS(=O)(=O)c1ccc(NC(=O)c2ccccc2[N+](=O)[O-])cc1,> 100 µM (inactive),–,> 100 µM,> 100 µM (inactive),–,> 100 µM (inactive),> 100 µM (inactive),> 100 µM (inactive),> 100 µM (inactive),> 100 µM (inactive),> 100 µM (inactive),> 100 µM (inactive),–,> 100 µM (inactive),> 100 µM (inactive),> 100 µM (inactive)
COC1=CC(=O)C(Br)=CC1=O,> 100 µM (inactive),36.3 µM (inactive),21.6 µM,5.32 µM (inactive),> 100 µM (inactive),19.2 µM (inactive),3.06 µM (inactive),19 µM (inactive),8.69 µM (inactive),> 10 µM (inactive),26.9 µM (inactive),17.8 µM (inactive),–,19.9 µM (inactive),–,17.5 µM (inactive)
CC(C)(C)C(=O)Nc1cccc2oc(-c3ccccc3)cc12,> 100 µM (inactive),> 100 µM (inactive),> 100 µM,66.2 µM (inactive),> 100 µM (inactive),> 100 µM (inactive),> 100 µM (inactive),> 100 µM (inactive),–,–,> 100 µM (inactive),> 100 µM (inactive),88.5 µM (inactive),–,> 100 µM (inactive),26.2 µM (inactive)
CS(=O)(=O)c1ccc(-c2cc(-c3ccc(S(C)(=O)=O)cc3)[n+](-c3cc(-c4ccc(S(C)(=O)=O)cc4)c([O-])c(-c4ccc(S(C)(=O)=O)cc4)c3)c(-c3ccc(S(C)(=O)=O)cc3)c2)cc1,> 100 µM (inactive),> 100 µM (inactive),> 100 µM,–,> 100 µM (inactive),> 100 µM (inactive),> 100 µM (inactive),> 100 µM (inactive),> 100 µM (inactive),> 100 µM (inactive),> 100 µM (inactive),> 100 µM (inactive),> 100 µM (inactive),> 100 µM (inactive),> 100 µM (inactive),> 100 µM (inactive)
